Measurements taken from patent publication US20170196878A1, “USE OF CBP/EP300 AND BET INHIBITORS FOR TREATMENT OF CANCER” (GENENTECH, INC., priority 2014, published 2017).

Columns and labels:
[1] = target: T1, ZsGreen-bromodomain fusion protein (CBP) (Homo sapiens, UniProt Q92793); assay: Release of chromatin-bound ZsGreen-bromodomain fusion protein (CBP), high content imaging of nuclear foci; format: cell-based; settings: number of nuclear foci, read-out: Calculated EC50, release of chromatin-bound ZsGreen-CBP bromodomain fusion protein
T1 construct: expressed in transfected cells
T1 sequence (Q92793 1085-1192 limits assumed): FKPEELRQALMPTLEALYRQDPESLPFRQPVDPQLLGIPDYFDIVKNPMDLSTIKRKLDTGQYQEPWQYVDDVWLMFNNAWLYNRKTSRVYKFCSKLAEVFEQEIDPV
From the text: (§1) Release of chromatin-bound ZsGreen-bromodomain fusion proteins in the presence of compound was monitored with high content imaging. Each curve represents the indicated compound and the indicated fusion protein (BRD4 or CBP). The number of nuclear foci increases with compound target engagement (values are mean of four fields per well of two technical replicates, +SEM).

IRF4 mRNA expression = IRF4 mRNA expression in LP-1 cells by q-RTPCR; format: cell-based; settings: 6 h, q-RTPCR normalized to GAPDH
Procedure: FIG. 8. CBP/EP300 and BET bromodomain inhibition have distinct transcriptional effects. […] Expression values for replicate compound treated samples were normalized to paired DMSO controls to obtain log2 fold change values. […] Cells were treated with compound for 6 h, and mRNA expression was assessed with q-RTPCR and normalized to GAPDH. Values represent the mean of n=3, ±SEM. […] LP-1 cells were treated with a titration of CPI203 for 6 h, and IRF4 expression was determined by q-RTPCR and normalized to GAPDH. Values represent the mean of n=2, ±SEM.

[2] = target: ZsGreen-bromodomain fusion protein (BRD4) (Homo sapiens, UniProt O60885); assay: Release of chromatin-bound ZsGreen-bromodomain fusion protein (BRD4), high content imaging of nuclear foci; settings: read-out: Calculated EC50, release of chromatin-bound ZsGreen-BRD4 bromodomain fusion protein, number of nuclear foci
From the text: as §1

Row | EC50 [2] [nM] | Structure (SMILES) | EC50 [1] [nM] | IRF4 mRNA expression (IRF4 mRNA expression)
1 | > 20000 | CCC(=O)N1CCOc2c(cc(-c3ccc(OC)c(OC)c3)cc2OC[C@H]2CCCN(C)C2)C1 [I-CBP112] | 2600 | 
2 | 21500 | COc1ccc(CCc2nc3cc(-c4c(C)noc4C)ccc3n2C[C@H](C)N2CCOCC2)cc1Cl [SGC-CBP30] |  | Dose-dependent inhibition

Row | Structure (SMILES) | EC50 [2] [nM] | EC50 [1] [nM] | IRF4 mRNA expression (IRF4 mRNA expression)
3 | Cc1sc2c(c1C)C(c1ccc(Cl)cc1)=N[C@@H](CC(N)=O)c1nnc(C)n1-2 [CPI203] | 80 | 1800 | does not directly regulate
